Measured values: patent US20110294843A1, “ADMINISTRATION SCHEME OF POLAR OPIOID METABOLITES FOR POST-OPERATIVE PAIN MANAGEMENT” (PAION UK Limited, priority 2008, published 2011)

Columns and labels:
[1] = system: patients following hip-replacement surgery; experiment: M6G001A study: post-operative analgesia following hip-replacement surgery; type: in vivo, human; conditions: all doses (10, 15, 20 mg/70 kg IV bolus followed by PCA)
Description: . This was a double-blind, randomised study. […]

[2] = system: patients following hip-replacement surgery; experiment: M6G012 study: acute pain following hip-replacement surgery under general anaesthetic; type: in vivo, human; conditions: 30 mg/70 kg at skin closure, four hour post-operative period
μ-opioid receptor = μ-opioid receptor (Homo sapiens, UniProt P35372); conditions: cited from earlier work
Chain of μ-opioid receptor (P35372 whole entry, species assumed): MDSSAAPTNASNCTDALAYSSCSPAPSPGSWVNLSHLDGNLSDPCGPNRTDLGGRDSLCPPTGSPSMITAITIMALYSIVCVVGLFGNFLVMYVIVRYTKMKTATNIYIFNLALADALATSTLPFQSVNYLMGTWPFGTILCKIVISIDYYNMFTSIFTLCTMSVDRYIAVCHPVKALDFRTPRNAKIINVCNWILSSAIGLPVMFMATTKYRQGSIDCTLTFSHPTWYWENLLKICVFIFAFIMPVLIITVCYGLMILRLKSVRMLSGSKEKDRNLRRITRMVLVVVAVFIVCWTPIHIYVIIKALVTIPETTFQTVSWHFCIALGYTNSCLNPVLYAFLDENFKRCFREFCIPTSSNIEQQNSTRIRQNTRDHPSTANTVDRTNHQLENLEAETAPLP

Question: What does the source list for `CN1CC[C@]23c4c5ccc(O)c4O[C@H]2[C@@H](OC2OC(C(=O)O)C(O)C(O)C2O)C=CC3[C@H]1C5` (stereo partly drawn) [M6G, (5α,6α)-7,8-Didehydro-4,5-epoxy-3-hydroxy-17-methylmorphinan-β-yl-β-D-glucopyranosiduronic acid]?
Answer: tolerability [1]: well tolerated; pain (VAS) compared with 10 mg/70 kg morphine at skin closure [2]: non-inferior; affinity for the μ-opioid receptor compared with morphine (μ-opioid receptor): comparable affinity
